Data set [1] has as its target T1, rat CYP51 (Rattus norvegicus, UniProt Q64654).
T1 construct: purchased Cypex, Inc
T1 sequence (Q64654 1-503): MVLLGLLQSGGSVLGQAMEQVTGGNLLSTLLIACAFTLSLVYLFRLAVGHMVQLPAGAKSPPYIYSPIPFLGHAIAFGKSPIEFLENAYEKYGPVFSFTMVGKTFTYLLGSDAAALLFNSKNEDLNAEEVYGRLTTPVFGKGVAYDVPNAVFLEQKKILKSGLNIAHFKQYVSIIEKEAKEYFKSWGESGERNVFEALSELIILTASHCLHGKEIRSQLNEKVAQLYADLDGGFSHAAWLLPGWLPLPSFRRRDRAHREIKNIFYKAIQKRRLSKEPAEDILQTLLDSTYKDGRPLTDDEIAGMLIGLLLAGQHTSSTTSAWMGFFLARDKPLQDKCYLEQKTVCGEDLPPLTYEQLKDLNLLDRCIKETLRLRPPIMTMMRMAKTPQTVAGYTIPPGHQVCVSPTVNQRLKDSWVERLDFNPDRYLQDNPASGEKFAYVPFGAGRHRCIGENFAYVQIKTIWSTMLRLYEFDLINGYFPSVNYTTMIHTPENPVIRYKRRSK
The experiment in a line: CYP51 enzymatic assay (LC/MS quantitation of FF-MAS). The data set is classed as biochemical.
Description: Finally, 15 μl of each reaction/isopropanol mixture was injected onto a SCIEX Triple Quad 6500 LC-MS/MS system using an APCI ion source in positive ion mode with a Shimadzu UFLC-20AD HPLC and a Phenomenex

For data set [2], the system named is mouse epiblast stem cell-derived OPCs. As to the kind of experiment: In vitro phenotypic screening of OPCs (MBP+ oligodendrocytes at 72 h). The class given is cell-based. Here is the method:
Then, 40,000 cells were seeded per well in differentiation medium and allowed to attach for 30 min before addition of drug. […] Sterols were added to cells as an ethanol solution (0.2% final ethanol concentration). […] Cells were incubated under standard conditions (37° C., 5% CO2) for 3 days and fixed with 4% paraformaldehyde (PFA) in phosphate buffered saline (PBS) for 20 min. Fixed plates were washed with PBS (200 μL per well) twice, permeabilized with 0.1% Triton X-100 and blocked with 10% donkey serum (v/v) in PBS for 40 min. […] Nuclei were visualized by DAPI staining (Sigma; 1 μg/ml).

The test system of data set [3] is OPCs (OPC-1 derivation). The experiment in a line: High-throughput screening of 3,000 bioactive small molecules for MBP+ oligodendrocyte formation. The note with it: 2 μM, 72 h; for % Oligos: MBP+; for fold-change in % MBP + oligodendrocytes: relative to DMSO controls of the same plate. An excerpt: Plates were imaged on the Operetta High Content Imaging and Analysis system (PerkinElmer) and a set of 6 fields captured from each well resulting in an average of 1200 cells being scored per well. Analysis (PerkinElmer Harmony and Columbus software) began by identifying intact nuclei stained by DAPI; that is, those traced nuclei that were larger than 300 μm^2 in surface area. Each traced nucleus region was then expanded by 50% and cross-referenced with the […] (MBP) stain to identify oligodendrocyte nuclei, and from this the percentage of oligodendrocytes was calculated. In some experiments, the total process length of MBP+ oligodendrocytes was calculated as previously described.
EpiSC-derived OPCs were grown and expanded in poly-ornithine and laminin-coated flasks before harvesting for plating. Cells were dispensed in differentiation media supplemented with Noggin (R&D Systems; 100 ng/ml), Neurotrophin 3 (R&D Systems; 10 ng/ml), cAMP (Sigma; 50 μM), and IGF-1 (R&D Systems; 100 ng/ml)) using a Biotek EL406 Microplate Washer Dispenser (Biotek) equipped with 5 μL dispense cassette (Biotek), into poly-D-lysine/laminin (Sigma, L2020; 4 μg/ml)-coated sterile, 384-well, CellCarrier ultra plates (PerkinElmer), to a final density of 12,500 cells per well and allowed to attach for 45 min before addition of drug. A 3 mM stock of bioactive compound library in dimethylsulphoxide (DMSO) were prepared in an Abgene storage 384-well plate (ThermoFisher Scientific; AB1055). These were added to assay plates using a 50 nL solid pin tool attached to Janus automated workstation (Perkin Elmer), resulting in a final screening concentration of 2 μM. Cells were incubated at 37° C. for 1 hour and then T3 (Sigma; 40 ng/ml) was added to all wells except negative controls, to which FGF (20 ng/ml) was added instead. Negative controls and T3-alone were included in each assay plate. After incubation at 37° C. for 72 h, cells were fixed, washed and stained similar to 96-well OPC assay protocol, although all the washing steps were performed using a Biotek EL406 Microplate Washer Dispenser (Biotek) equipped with a 96-well aspiration manifold. Cells were stained with DAPI (Sigma; 1 μg/ml) and MBP antibody (Abeam, ab7349; 1:100). Plates were imaged on the Operetta High Content Imaging and Analysis system (PerkinElmer) and a set of 4 fields captured from each well resulting in an average of 700 cells being scored per well. Analysis was performed as in High-Content Imaging and Analysis, above. All plates for the primary screen were processed and analyzed simultaneously to minimize variability. Molecules causing more than 20% reduction in nuclear count relative to DMSO control wells were removed from consideration, and hits were called on the basis of largest fold-increase in percentage of MBP+ oligodendrocytes relative to DMSO controls within the same plate.

Data set [4] has as its system OPCs. As to the kind of experiment: GC/MS-based sterol profiling in OPCs. The class given is cell-based, mouse. The note with it: for sterol levels / sterol intermediate accumulation in OPCs: 24 h treatment (siRNA 96 h).
Data set [5] has as its target T2, EBP (Mus musculus, UniProt P70245).
T2 construct: active EBP was obtained from mouse microsomes; from tissue
T2 sequence (P70245 1-230): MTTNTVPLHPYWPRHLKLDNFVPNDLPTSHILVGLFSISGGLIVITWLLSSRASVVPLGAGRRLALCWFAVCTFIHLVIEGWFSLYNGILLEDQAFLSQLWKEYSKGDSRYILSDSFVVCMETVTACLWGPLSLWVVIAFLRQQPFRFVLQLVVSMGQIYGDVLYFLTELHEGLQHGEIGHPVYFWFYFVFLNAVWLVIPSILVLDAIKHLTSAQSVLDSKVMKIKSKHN
As to the kind of experiment: EBP enzymatic assay (GC/MS). The data set is classed as biochemical. The note with it: 10 μM, zymostenol 25 μM.

The subject of data set [6] is T47D cells. The note with it: 5 days.
[7] abbreviates: listed as Raloxifene hydrochloride, HCl.

Values joined by “and” are separate entries in the source; they are usually repeats but may differ in a detail not shown here. Identical values can stand only once. Counter-ions that a name gives are not always drawn. Like-named read-outs stand apart in the source and are kept apart here.

As for `CC(=O)N1CCN(c2ccc(OC[C@@H]3CO[C@](Cn4ccnc4)(c4ccc(Cl)cc4Cl)O3)cc2)CC1` (stereo in doubt) [R-trans-Ketoconazole], the “inhibition of mammalian CYP51 in vitro” value in data set [1] was “strikingly less effective at inhibiting mammalian CYP51”. Take `CC(=O)N1CCN(c2ccc(OC[C@H]3CO[C@@](Cn4ccnc4)(c4ccc(Cl)cc4Cl)O3)cc2)CC1` (stereo in doubt) [S-trans-Ketoconazole]: the “inhibition of mammalian CYP51 in vitro” value in data set [1] is listed as “strikingly less effective at inhibiting mammalian CYP51”. For `CC(C)CCC[C@@H](C)[C@H]1CC=C2C3=C(CC[C@@]21C)[C@@]1(C)CCC(O)CC1CC3` (stereo partly drawn) [14-dehydrozymostenol, cholesta-8,14-dien-β-ol], the “formation of MBP+ oligodendrocytes from OPCs” value (from here on “formation”) in data set [2] is recorded as “enhanced the formation of MBP+ oligodendrocytes”. `Clc1ccccc1C(c1ccccc1)(c1ccccc1)n1ccnc1` [Clotrimazole]: in data set [3], the “% Oligos” value is 34.36% and 27.93%; the “fold-change in % MBP + oligodendrocytes” value turned out to be 5.88. On to `C[C@]12CC[C@@H]3c4ccc(O)cc4C[C@@H](CCCCCCCCC[S+]([O-])CCCC(F)(F)C(F)(F)F)[C@H]3[C@@H]1CC[C@@H]2O` (stereo partly drawn) [Fulvestrant], for which the “cholesterol pathway enzyme inhibited in OPCs (from sterol profile)” value in data set [4] (GC/MS, 24 h) is “targeted CYP51”. For `Cl.O[Si](CCCN1CCCCC1)(c1ccc(F)cc1)C1CCCCC1` (stereo not drawn) [Hexahydro-sila-difenidol hydrochloride, p-fluoro analog], the “% Oligos” value in data set [3] came to 26.76%. With `Cl.Cl.OCCOCCN1CCN(C(c2ccccc2)c2ccc(Cl)cc2)CC1` (stereo not drawn) [Hydroxyzine 2HCl], in data set [3], the “cell viability (% relative to DMSO)” value came out at 134.19%, the “% Oligos” value is recorded as 40.63% and the “fold-change in % MBP + oligodendrocytes” value was 4.80.

`Clc1ccc(C(Cn2ccnc2)OCc2c(Cl)cccc2Cl)c(Cl)c1` (stereo not drawn) [Isoconazole nitrate]: the “% Oligos” value in data set [3] is listed as 53.25%.

For the compound `Cl.Clc1ccc(N2CCN(Cc3c[nH]c4ncccc34)CC2)cc1` [L-745,870 hydrochloride], in data set [3], the “% Oligos” value is reported as 32.61%. Regarding `O=C(c1ccc(OCCN2CCCCC2)cc1)c1c(-c2ccc(O)cc2)sc2cc(O)ccc12` [Raloxifene HCl], in data set [3] (HCl), the “% Oligos” value was 35.01%. In data set [3] (setting [7]), the “% Oligos” value is 33.33% and the “fold-change in % MBP + oligodendrocytes” value is reported as 3.77.

Turning to `Cc1cc(NC(=O)Nc2ccc(N(C)C)cc2)c2cc(F)cc(F)c2n1` [SB408124], in data set [3], the “cell viability (% relative to DMSO)” value is recorded as 106.19% and the “% Oligos” value worked out at 39.63%.

As for `COc1ccc(S(=O)(=O)N2CCC(N3CCC(C)CC3)CC2)cc1` [TASIN-1, Tasin-1], the “inhibition of EBP enzymatic activity” value in data set [5] is reported as “clear inhibition”. In data set [2], the “formation” value was “enhanced formation of MBP+ oligodendrocytes”. Turning to `CCN(CC)CCCCCCCCOC(=O)c1cc(OC)c(OC)c(OC)c1.Cl` [TMB-8 hydrochloride], in data set [3], the “cell viability (% relative to DMSO)” value is given as 139.42% and the “% Oligos” value amounted to 18.47%. For `CCC(C)(C)c1ccc(CC(C)CN2C[C@@H](C)O[C@@H](C)C2)cc1` (stereo partly drawn) [amorolfine, Amorolfine], the “formation” value in data set [2] is “enhanced formation of MBP+ oligodendrocytes”. On to `CN1[C@@H]2CC[C@H]1C[C@@H](OC(c1ccccc1)c1ccccc1)C2` [benztropine, Benztropine], for which, in data set [5], the “inhibition of EBP enzymatic activity” value is “clear inhibition”. In addition, the “sterol levels / sterol intermediate accumulation in OPCs” value in data set [4] (GC/MS) is “induced accumulation of zymostenol and zymosterol and decreased basal sterol levels”. Regarding `C=C(c1ccc(C(=O)O)cc1)c1cc2c(cc1C)C(C)(C)CCC2(C)C` [bexarotene, Bexarotene], the “sterol levels / sterol intermediate accumulation in OPCs” value in data set [4] (GC/MS) is on record as “minimal effects on sterol levels”. With `CC(C)CCC[C@@H](C)[C@H]1CC[C@H]2[C@@H]3CC=C4C[C@@H](O)CC[C@]4(C)[C@H]3CC[C@]12C` [cholesterol, Cholesterol], the “formation” value in data set [2] is given as “ineffective”. Turning to `CN1CCC[C@@H]1CCO[C@](C)(c1ccccc1)c1ccc(Cl)cc1` [clemastine, Clemastine], the “sterol levels / sterol intermediate accumulation in OPCs” value in data set [4] (GC/MS) was “induced accumulation of zymostenol and zymosterol and decreased basal sterol levels”.

As for `OC(Cn1cncn1)(Cn1cncn1)c1ccc(F)cc1F` [fluconazole, Fluconazole], the “inhibition of mammalian CYP51 in vitro” value in data set [1] is given as “did not inhibit mammalian CYP51 in vitro”. Regarding `OCCOCCN1CCN(C(c2ccccc2)c2ccc(Cl)cc2)CC1` (stereo not drawn) [hydroxyzine, Hydroxyzine], the “inhibition of EBP enzymatic activity” value in data set [5] is on record as “directly inhibiting EBP enzymatic activity”. As for `CC(C)=CCC[C@@H](C)[C@H]1CC[C@@]2(C)C3=C(CC[C@]12C)[C@@]1(C)CC[C@H](O)C(C)(C)[C@@H]1CC3` [lanosterol, Lanosterol], the “formation” value in data set [2] is “enhanced formation of MBP+ oligodendrocytes in a dose-responsive fashion”. As to `N[C@@H](Cc1cc(I)c(Oc2ccc(O)c(I)c2)c(I)c1)C(=O)O` [liothyronine, Liothyronine], the “sterol levels / sterol intermediate accumulation in OPCs” value in data set [4] (GC/MS) is “minimal effects on sterol levels”. As to `OCCOc1ccc(/C(=C(/CCCl)c2ccccc2)c2ccccc2)cc1` [ospemifene, Ospemifene], in data set [6], the “antiestrogen effects on estrogen-dependent growth” value is “comparable antiestrogen effects”. Also, the “formation” value in data set [2] is “did not enhance differentiation to MBP+ oligodendrocytes”. Also, in data set [4], the “cholesterol pathway enzyme inhibited in OPCs (from sterol profile)” value was “did not inhibit EBP in OPCs”. On to `CC(C)CCC[C@@H](C)[C@H]1CC[C@H]2C3=C(CC[C@]12C)[C@@]1(C)CC[C@H](O)C[C@@H]1CC3` [zymostenol, Zymostenol], for which the “formation” value in data set [2] is “enhanced the formation of MBP+ oligodendrocytes”. Take (±)-Vesamicol: in data set [3], the “cell viability (% relative to DMSO)” value was 112.02% and the “% Oligos” value worked out at 34.23%.

For Ifenprodil Tartrate, in data set [3], the “cell viability (% relative to DMSO)” value is 103.79%, the “% Oligos” value came to 41.41% and the “fold-change in % MBP + oligodendrocytes” value amounted to 4.89. Besides, in data set [3] (listed as ifenprodil tartrate), the “% Oligos” value was 33.69%, the “fold-change in % MBP + oligodendrocytes” value amounted to 3.61 and the “cell viability (% relative to DMSO)” value amounted to 106.02%. Regarding Varenicline tartrate, in data set [3], the “cell viability (% relative to DMSO)” value came to 144.02% and the “% Oligos” value amounted to 22.86%.

(Values after US12403104B2, “Compounds and methods of promoting myelination” (Case Western Reserve University, priority 2016, dated 2025).)
